# Earlier results as cited in US7317103B2, “Imaging agents for diagnosis of Parkinson's disease” (Molecular Insight Pharmaceuticals, Inc., priority 2000, dated 2008).
# Settings: Tc-99m labeled tropane analog, Kung et al
smiles,measurement,value
CN1[C@H]2CC[C@@H]1[C@@H](CN(CC[S-])CC[N-]CC[S-])[C@@H](c1ccc(Cl)cc1)C2.[O]=[99Tc+4] [TRODAT],absolute brain uptake,very low
